Data set [1] in a line: preliminary pharmacokinetics in serum after Eudragit-formulated 3-IAld (90% 3-IAld/10% 13C8-labeled 3-IAld), mass spectrometry. In kind it is in vivo. On the procedure:
Primary pharmacodynamics studies have been performed. The mode of action of 3-IAld occurs upon binding to AhR, both in vitro and in vivo. In vitro, 3-IAld induced luciferase activity in the H1L1.1c2 cell line containing a stably-transfected AhR-responsive firefly luciferase at the dose range […] (Zelante et al, 2013). […] Preliminary pharmacokinetics data have been obtained by administration of Eudragit-formulated 3-IAld in the composition 90% 3-IAld/10% 13C8-labeled 3-IAld and targeted/untargeted analysis by mass spectrometry in serum at different times (30 minutes (min), 1 hour (h), 2 h, 4.5h, 6 h, 24h). […] The presence of indole-3-formic acid was also confirmed with labelled 3-IAld (FIG. 13E), showing a similar kinetics and a peak level of about 25 μM at 30 min.

The nature of data set [2]: single-dose pharmacokinetic study in healthy C57BL/6 mice, tissues and serum by mass spectrometry.
Protocol: A single-dose pharmacokinetic (PK) study was performed on healthy C57BL/6 mice to compare 1ME3CA and 3-IAld at 0.36 mg/topo dose. Untreated naïve mice were used as the control. […] Blood, obtained by cardiac puncture and collected into EDTA-containing tubes, and organs (brain, lung, intestine, liver and kidney) were assessed. All samples were stored at −80° C. until use. To evaluate 1ME3CA and 3-IAld for functional activity, the expression of AhR-downstream genes were concomitantly evaluated in these mice.
Another data set addresses T1, AhR (Homo sapiens, UniProt P35869).
T1 sequence (P35869 11-848): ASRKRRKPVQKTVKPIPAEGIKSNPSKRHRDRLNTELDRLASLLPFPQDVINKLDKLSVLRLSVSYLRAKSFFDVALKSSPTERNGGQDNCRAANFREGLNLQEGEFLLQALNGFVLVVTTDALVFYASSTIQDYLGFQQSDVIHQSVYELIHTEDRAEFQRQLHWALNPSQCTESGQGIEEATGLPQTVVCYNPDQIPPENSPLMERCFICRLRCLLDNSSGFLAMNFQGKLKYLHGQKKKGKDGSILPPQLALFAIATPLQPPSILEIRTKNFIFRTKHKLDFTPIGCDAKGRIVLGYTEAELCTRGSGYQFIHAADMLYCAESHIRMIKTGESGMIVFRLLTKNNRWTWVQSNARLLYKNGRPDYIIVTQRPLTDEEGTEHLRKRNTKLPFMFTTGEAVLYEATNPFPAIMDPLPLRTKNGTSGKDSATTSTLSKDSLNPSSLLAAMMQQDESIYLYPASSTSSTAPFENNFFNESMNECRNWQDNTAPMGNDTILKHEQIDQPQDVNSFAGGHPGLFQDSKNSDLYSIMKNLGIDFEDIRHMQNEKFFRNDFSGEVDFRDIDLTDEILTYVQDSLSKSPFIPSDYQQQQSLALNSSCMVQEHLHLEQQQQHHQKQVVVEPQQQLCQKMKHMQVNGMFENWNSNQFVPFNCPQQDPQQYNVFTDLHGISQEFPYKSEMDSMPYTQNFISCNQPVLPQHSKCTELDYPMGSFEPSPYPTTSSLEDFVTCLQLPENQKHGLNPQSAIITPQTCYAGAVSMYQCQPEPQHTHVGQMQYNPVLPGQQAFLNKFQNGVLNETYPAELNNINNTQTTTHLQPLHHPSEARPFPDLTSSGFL
The data set can be described thus: Cyp1A1 induction in HepG2 liver cancer cell line. The arrangement: endogenous in cells; host or cells: HepG2, A549, Calu-3, CaCo-2. It counts as cell-based. Conditions: for induction of the AhR activation marker Cyp1A1 (mRNA): between 1 and 100 μM. The source says:
FIG. 14 graphically represents Cypla1 mRNA fold increase with the addition of 3-IAld or Ox-3-IAld.

The values below come from patent publication US20250090498A1, “TREATMENT OF PRIMARY CTLA-4 CHECKPOINT RELATED IMMUNODEFICIENCIES” (ADIENNE PHARMA & BIOTECH SA, priority 2023, published 2025).

With `Cn1c(C(=O)O)cc2ccccc21` [1-Methylindole-2-carboxylic acid], the “serum level of methylated forms of indole-3-formic acid at 1 hour” value in data set [1] (1 hour after 3-IAld) is reported as “reduced levels”. Also, the “peak serum level of methylated forms of indole-3-formic acid” value in data set [1] (at 30 minutes after 3-IAld) is listed as “about 150 nM”.

Turning to `COC(=O)c1c[nH]c2ccccc12` [Methyl indole-3-carboxylate], the “serum level of methylated forms of indole-3-formic acid at 1 hour” value in data set [1] (in vivo) is “reduced levels”.

For the compound `O=C(O)c1c[nH]c2ccccc12` [indole-3-formic acid], the “concentrations in all organs” value in data set [2] (after enteric 1ME3CA 18 mg/Kg) is “basal”. In addition, in data set [2] (after oral 3-IAld 18 mg/Kg), the “clearance of metabolites from the organs” value is “rapid clearance”; the “presence as metabolite of 3-IAld in serum and other tissues” value is recorded as “main metabolite”. For the same compound, at AhR, the “pharmacological activity in vitro” value is reported as “pharmacologically active” and the “induction of the AhR activation marker Cyp1A1 (mRNA)” value was “induce the AhR activation marker Cyp1A1 in a dose-dependent manner”. The “induction of the AhR activation marker Cyp1A1 (mRNA)” value at AhR (listed as Ox-3-IAld) is reported as “induction of the AhR activation marker Cyp1A1 in a dose-dependent manner”.
